Columns and labels:
Experiment in all cases: In vitro assay of antibacterial activity (agar dilution MIC)
Assay type in all cases: cell-based
[1] = system: Actinetobacter calcoaceticus CMX 669; conditions: BHI agar, 35-37 °C, 20 to 24 hours, unit assumed
Description: (§1) Representative compounds of the present invention were assayed in vitro for antibacterial activity as follows: Twelve petri dishes containing successive aqueous dilutions of the test compound mixed with 10 mL of sterilized Brain Heart Infusion (BHI) agar (Difco 0418-01-5) were prepared. Each plate was inoculated with 1:100 (or 1:10 for slow-growing strains, such as Micrococcus and Streptococcus) dilutions of up to 32 different microorganisms, using a Steers replicator block. The inoculated plates were incubated at 35-37 °C for 20 to 24 hours, In addition, a control plate, using BHI agar containing no test compound, was prepared and incubated at the beginning and end of each test.
(§2) An additional plate containing a compound having known susceptibility patterns for the organisms being tested and belonging to the same antibiotic class as the test compound was also prepared and incubated as a further control, as well as to provide test-to-test comparability.
(§3) After incubation, each plate was visually inspected. The minimum inhibitory concentration (MIC) was defined as the lowest concentration of drug yielding no growth, a slight haze, or sparsely isolated colonies on the inoculum spot as compared to the growth control. […]

[2] = system: Staphylococcus aureus A5177; conditions: BHI agar, 35-37 °C, 20 to 24 hours, unit assumed
Description: as §1, §2, §3

[3] = system: Mycobacterium smegmatis ATCC 114; conditions: BHI agar, 35-37 °C, 20 to 24 hours, unit assumed
Description: as §1
as §2, with “comparability. Erythromycin A was used for this purpose.” for “comparability.”
as §3

[4] = system: Pseudomonas aeruginosa K799/61; conditions: BHI agar, 35-37 °C, 20 to 24 hours, unit assumed
Description: as §1
as §2, with “comparability. Erythromycin A was used for this purpose.” for “comparability.”
as §3

[5] = system: Escherichia coli DC-2; conditions: BHI agar, 35-37 °C, 20 to 24 hours, unit assumed
Description: as §1
as §2, with “comparability. Erythromycin A was used for this purpose.” for “comparability.”
as §3

[6] = system: Staphylococcus aureus CMX 642A; conditions: BHI agar, 35-37 °C, 20 to 24 hours, unit assumed
Description: as §1
as §2, with “comparability. Erythromycin A was used for this purpose.” for “comparability.”
as §3

[7] = system: Streptococcus pyogenes EES61; conditions: BHI agar, 35-37 °C, 20 to 24 hours, unit assumed
Description: as §1
as §2, with “comparability. Erythromycin A was used for this purpose.” for “comparability.”
as §3

[8] = system: Pseudomonas aeruginosa DPHD-2862; conditions: BHI agar, 35-37 °C, 20 to 24 hours, unit assumed
Description: as §1
as §2, with “comparability. Erythromycin A was used for this purpose.” for “comparability.”
as §3

[9] = system: Staphylococcus aureus A-5278; conditions: BHI agar, 35-37 °C, 20 to 24 hours, unit assumed
Description: as §1
as §2, with “comparability. Erythromycin A was used for this purpose.” for “comparability.”
as §3

[10] = system: Escherichia coli SS; conditions: BHI agar, 35-37 °C, 20 to 24 hours, unit assumed
Description: as §1
as §2, with “comparability. Erythromycin A was used for this purpose.” for “comparability.”
as §3

[11] = system: Streptococcus agalactiae CMX 508; conditions: BHI agar, 35-37 °C, 20 to 24 hours, unit assumed
Description: as §1
as §2, with “comparability. Erythromycin A was used for this purpose.” for “comparability.”
as §3

[12] = system: Providencia struartii CMX 640; conditions: BHI agar, 35-37 °C, 20 to 24 hours, unit assumed
Description: as §1
as §2, with “comparability. Erythromycin A was used for this purpose.” for “comparability.”
as §3

[13] = system: Staphylococcus aureus NCTC10649M; conditions: BHI agar, 35-37 °C, 20 to 24 hours, unit assumed
Description: as §1
as §2, with “comparability. Erythromycin A was used for this purpose.” for “comparability.”
as §3

[14] = system: Staphylococcus aureus CMX 553; conditions: BHI agar, 35-37 °C, 20 to 24 hours, unit assumed
Description: as §1
as §2, with “comparability. Erythromycin A was used for this purpose.” for “comparability.”
as §3

[15] = system: Pseudomonas aeruginosa BMH10; conditions: BHI agar, 35-37 °C, 20 to 24 hours, in µg/mL (unit assumed)
Description: as §1
as §2, with “comparability. Erythromycin A was used for this purpose.” for “comparability.”
as §3

[16] = system: Micrococcus luteus ATCC 4698; conditions: BHI agar, 35-37 °C, 20 to 24 hours, unit assumed
Description: as §1
as §2, with “comparability. Erythromycin A was used for this purpose.” for “comparability.”
as §3

[17] = system: Escherichia coli JUHL; conditions: BHI agar, 35-37 °C, 20 to 24 hours, in µg/mL (unit assumed)
Description: as §1
as §2, with “comparability. Erythromycin A was used for this purpose.” for “comparability.”
as §3

[18] = system: Escherichia coli H560; conditions: BHI agar, 35-37 °C, 20 to 24 hours, unit assumed
Description: as §1
as §2, with “comparability. Erythromycin A was used for this purpose.” for “comparability.”
as §3

[19] = system: Klebsiella pneumoniae ATCC 8045; conditions: BHI agar, 35-37 °C, 20 to 24 hours, unit assumed
Description: as §1
as §2, with “comparability. Erythromycin A was used for this purpose.” for “comparability.”
as §3

[20] = system: Staphylococcus aureus ATCC 6538P; conditions: BHI agar, 35-37 °C, 20 to 24 hours, unit assumed
Description: as §1
as §2, with “comparability. Erythromycin A was used for this purpose.” for “comparability.”
as §3

[21] = system: Micrococcus luteus ATCC 9341; conditions: BHI agar, 35-37 °C, 20 to 24 hours, unit assumed
Description: as §1
as §2, with “comparability. Erythromycin A was used for this purpose.” for “comparability.”
as §3

[22] = system: Pseudomonas aeruginosa DPHD-5263; conditions: BHI agar, 35-37 °C, 20 to 24 hours, in µg/mL (unit assumed)
Description: as §1
as §2, with “comparability. Erythromycin A was used for this purpose.” for “comparability.”
as §3

[23] = system: Pseudomonas aeruginosa 5007; conditions: BHI agar, 35-37 °C, 20 to 24 hours, unit assumed
Description: as §1
as §2, with “comparability. Erythromycin A was used for this purpose.” for “comparability.”
as §3

[24] = system: Staphylococcus epidermidis 3519; conditions: BHI agar, 35-37 °C, 20 to 24 hours, unit assumed
Description: as §1
as §2, with “comparability. Erythromycin A was used for this purpose.” for “comparability.”
as §3

[25] = system: Streptococcus pyogenes 930; conditions: BHI agar, 35-37 °C, 20 to 24 hours, unit assumed
Description: as §1
as §2, with “comparability. Erythromycin A was used for this purpose.” for “comparability.”
as §3

[26] = system: Pseudomonas capacia 2961; conditions: BHI agar, 35-37 °C, 20 to 24 hours, in µg/mL (unit assumed)
Description: as §1
as §2, with “comparability. Erythromycin A was used for this purpose.” for “comparability.”
as §3

[27] = system: Escherichia coli KNK 437; conditions: BHI agar, 35-37 °C, 20 to 24 hours, unit assumed
Description: as §1
as §2, with “comparability. Erythromycin A was used for this purpose.” for “comparability.”
as §3

[28] = system: Enterococcus faecium ATCC 8043; conditions: BHI agar, 35-37 °C, 20 to 24 hours, unit assumed
Description: as §1
as §2, with “comparability. Erythromycin A was used for this purpose.” for “comparability.”
as §3

[29] = system: Pseudomonas aeruginosa K799/WT; conditions: BHI agar, 35-37 °C, 20 to 24 hours, unit assumed
Description: as §1
as §2, with “comparability. Erythromycin A was used for this purpose.” for “comparability.”
as §3

[30] = system: Candida albicans CCH 442; conditions: BHI agar, 35-37 °C, 20 to 24 hours, unit assumed
Description: as §1
as §2, with “comparability. Erythromycin A was used for this purpose.” for “comparability.”
as §3

[31] = system: Staphylococcus aureus 1775; conditions: BHI agar, 35-37 °C, 20 to 24 hours, unit assumed
Description: as §1
as §2, with “comparability. Erythromycin A was used for this purpose.” for “comparability.”
as §3

[32] = system: Streptococcus bovis A-5169; conditions: BHI agar, 35-37 °C, 20 to 24 hours, unit assumed
Description: as §1
as §2, with “comparability. Erythromycin A was used for this purpose.” for “comparability.”
as §3

[33] = system: Enterobacter aerogenes ATCC 13048; conditions: BHI agar, 35-37 °C, 20 to 24 hours, unit assumed
Description: as §1
as §2, with “comparability. Erythromycin A was used for this purpose.” for “comparability.”
as §3

CC[C@H]1OC(=O)[C@H](C)[C@@H](O[C@H]2C[C@@](C)(OC)[C@@H](O)[C@H](C)O2)[C@H](C)[C@@H](O[C@@H]2O[C@H](C)C[C@H](N(C)C)[C@H]2O)[C@](C)(OCC(O)CNCc2ccccc2)C[C@@H](C)C(=O)[C@H](C)[C@@H](O)[C@]1(C)O (stereo partly drawn) [Example 7, Compound of Formula (X): X is =O, R is 2-hydroxy-3-(benzylamino)propyl]
MIC [1]: 12.5 µg/mL | MIC [2]: 3.1 µg/mL | MIC [3]: 0.2 µg/mL | MIC [4]: 0.39 µg/mL | MIC [5]: 6.2 µg/mL | MIC [6]: 0.39 µg/mL | MIC [7]: 0.01 µg/mL | MIC [8]: > 100 µg/mL | MIC [9]: > 100 µg/mL | MIC [10]: 0.2 µg/mL | MIC [11]: 0.01 µg/mL | MIC [12]: > 100 µg/mL | MIC [13]: 0.39 µg/mL | MIC [14]: 0.39 µg/mL | MIC [15]: 25 | MIC [16]: 0.78 µg/mL | MIC [17]: 12.5 | MIC [18]: 1.56 µg/mL | MIC [19]: 25 µg/mL | MIC [20]: 0.39 µg/mL | MIC [21]: 0.02 µg/mL | MIC [22]: > 100 | MIC [23]: > 100 µg/mL | MIC [24]: 0.39 µg/mL | MIC [25]: > 100 µg/mL | MIC [26]: > 100 | MIC [27]: 12.5 µg/mL | MIC [28]: 0.39 µg/mL | MIC [29]: 100 µg/mL | MIC [30]: > 100 µg/mL | MIC [31]: > 100 µg/mL | MIC [32]: 0.01 µg/mL | MIC [33]: 50 µg/mL

C#CCO[C@]1(C)C[C@@H](C)C(=O)[C@H](C)[C@@H](O)[C@](C)(O)[C@@H](CC)OC(=O)[C@H](C)[C@@H](O[C@H]2C[C@@](C)(OC)[C@@H](O)[C@H](C)O2)[C@H](C)[C@H]1O[C@@H]1O[C@H](C)C[C@H](N(C)C)[C@H]1O [Example 10, Compound of Formula (X): X is =O, R is -CH2-C≡CH]
MIC [1]: 12.5 µg/mL | MIC [2]: 6.2 µg/mL | MIC [3]: 0.39 µg/mL | MIC [4]: 3.1 µg/mL | MIC [5]: 100 µg/mL | MIC [6]: 0.39 µg/mL | MIC [7]: 0.01 µg/mL | MIC [8]: > 100 µg/mL | MIC [9]: > 100 µg/mL | MIC [10]: 0.78 µg/mL | MIC [11]: 0.05 µg/mL | MIC [12]: > 100 µg/mL | MIC [13]: 0.39 µg/mL | MIC [14]: 0.39 µg/mL | MIC [15]: 100 | MIC [16]: 0.78 µg/mL | MIC [17]: 50 | MIC [18]: 25 µg/mL | MIC [19]: > 100 µg/mL | MIC [20]: 0.2 µg/mL | MIC [21]: 0.05 µg/mL | MIC [22]: > 100 | MIC [23]: > 100 µg/mL | MIC [24]: 0.2 µg/mL | MIC [25]: > 100 µg/mL | MIC [26]: >100 | MIC [27]: > 100 µg/mL | MIC [28]: 0.1 µg/mL | MIC [29]: > 100 µg/mL | MIC [30]: > 100 µg/mL | MIC [31]: > 100 µg/mL | MIC [32]: 0.01 µg/mL | MIC [33]: > 100 µg/mL
